Experiments:
in vivo [1] = conditions: beagle, dog, iv, 0.6 mg/kg
in vivo [2] = conditions: beagle, dog, iv, 0.6 mg/kg; remark: listed apart in the source
in vivo [3] = conditions: beagle, dog, iv, 0.6 mg/kg; remark: listed apart in the source
in vivo [4] = conditions: beagle, dog, iv, 0.6 mg/kg; remark: listed apart in the source
in vivo [5] = conditions: beagle, dog, iv, 1.2 mg/kg
in vivo [6] = conditions: beagle, dog, iv, 1.2 mg/kg; remark: listed apart in the source
in vivo [7] = conditions: beagle, dog, iv, 1.2 mg/kg; remark: listed apart in the source
in vivo [8] = conditions: beagle, dog, iv, 1.2 mg/kg; remark: listed apart in the source
in vivo [9] = conditions: beagle, dog, iv, 2.4 mg/kg
in vivo [10] = conditions: beagle, dog, iv, 2.4 mg/kg; remark: listed apart in the source
in vivo [11] = conditions: beagle, dog, iv, 2.4 mg/kg; remark: listed apart in the source
in vivo [12] = conditions: beagle, dog, iv, 2.4 mg/kg; remark: listed apart in the source

With `CC(=O)O[C@H]1C(=O)[C@]23C[C@H]2C[C@H]2OC[C@@]2(OC(C)=O)[C@H]3[C@H](OC(=O)c2ccccc2)[C@]2(O)C[C@H](OC(=O)[C@H](O)[C@H](CC(C)C)NC(=O)OC(C)(C)C)C(C)=C1C2(C)C` the Tmax (in vivo [1]) was 0.89 h, the Cmax (in vivo [2]) was 67.1 ng/mL and the half-life (in vivo [3]) was 6.06 h. It also gave a Vd (in vivo [4]) of 45.6 L/kg, a Tmax (in vivo [5]) of 0.81 h and a Cmax (in vivo [6]) of 388 ng/mL. It also gave a half-life (in vivo [7]) of 11.2 h, a Vd (in vivo [8]) of 34.8 L/kg and a Tmax (in vivo [9]) of 0.97 h. The Cmax (in vivo [10]) was 974 ng/mL, the half-life (in vivo [11]) was 8.35 h and the Vd (in vivo [12]) was 30.8 L/kg.

— ChEMBL document CHEMBL4270572, “Synthesis and biological evaluation of novel larotaxel analogues” (Eur J Med Chem, 2018)
